According to PubChem BioAssay (NCI):
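96-well plates; 48 h exposure; 5 concentrations. Endpoints by linear interpolation between flanking doses. Not reached: highest tested concentration assigned. TGI: concentration producing complete growth inhibition.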

Assays:
Assay in all cases: NCI tumour cell line growth inhibition, 48 h
M19-MEL melanoma = tested on: M19-MEL melanoma
RXF-631 renal = tested on: RXF-631 renal
SNB-78 CNS = tested on: SNB-78 CNS
XF 498 CNS = tested on: XF 498 CNS
KM20L2 colon = tested on: KM20L2 colon
DMS 273 small cell lung = tested on: DMS 273 small cell lung
DLD-1 colon = tested on: DLD-1 colon
LOX IMVI melanoma = tested on: LOX IMVI melanoma
DMS 114 small cell lung = tested on: DMS 114 small cell lung
EKVX NSCLC = tested on: EKVX NSCLC
SNB-75 CNS = tested on: SNB-75 CNS
LXFL 529 NSCLC = tested on: LXFL 529 NSCLC
SR leukemia = tested on: SR leukemia
OVCAR-4 ovarian = tested on: OVCAR-4 ovarian
HOP-18 NSCLC = tested on: HOP-18 NSCLC

Compound: NC12CC3CC(C1)CC(Cl)(C3)C2
- TGI (M19-MEL melanoma): > 100 µM
- TGI (RXF-631 renal): > 100 µM
- TGI (SNB-78 CNS): > 100 µM
- TGI (XF 498 CNS): > 100 µM
- TGI (KM20L2 colon): > 100 µM
- TGI (DMS 273 small cell lung): > 100 µM
- TGI (DLD-1 colon): > 100 µM
- TGI (LOX IMVI melanoma): > 100 µM
- TGI (DMS 114 small cell lung): > 100 µM
- TGI (EKVX NSCLC): > 100 µM
- TGI (SNB-75 CNS): > 100 µM
- TGI (LXFL 529 NSCLC): > 100 µM

Compound: COC(=O)[C@H]1C=C[C@@H](C)n2c(=O)c3ccccc3c(=O)n21
- TGI (M19-MEL melanoma): > 100 µM
- TGI (SNB-78 CNS): > 100 µM
- TGI (XF 498 CNS): > 100 µM
- TGI (SR leukemia): > 100 µM
- TGI (OVCAR-4 ovarian): > 100 µM
- TGI (KM20L2 colon): > 100 µM
- TGI (DMS 273 small cell lung): > 100 µM
- TGI (DLD-1 colon): > 100 µM
- TGI (LOX IMVI melanoma): > 100 µM
- TGI (DMS 114 small cell lung): > 100 µM
- TGI (EKVX NSCLC): > 100 µM
- TGI (SNB-75 CNS): > 100 µM
- TGI (LXFL 529 NSCLC): > 100 µM

Compound: CC(=O)OC1OC2C(NC(=O)OC(C)(C)C)C1CC2(OCc1ccccc1)OCc1ccccc1 (stereo unspecified)
- TGI (M19-MEL melanoma): > 74.1 µM
- TGI (RXF-631 renal): > 100 µM
- TGI (SNB-78 CNS): > 100 µM
- TGI (XF 498 CNS): 41.9 µM
- TGI (SR leukemia): > 100 µM
- TGI (KM20L2 colon): 39.3 µM
- TGI (DMS 273 small cell lung): 69.5 µM
- TGI (DMS 114 small cell lung): 58 µM
- TGI (EKVX NSCLC): > 100 µM
- TGI (SNB-75 CNS): > 100 µM
- TGI (HOP-18 NSCLC): 46.5 µM
- TGI (LXFL 529 NSCLC): > 100 µM

Compound: CCOC(=O)C1=C(O)c2ccccc2C(=O)C1=O
- TGI (M19-MEL melanoma): 54.4 µM
- TGI (SNB-78 CNS): > 100 µM
- TGI (XF 498 CNS): > 100 µM
- TGI (SR leukemia): > 100 µM
- TGI (OVCAR-4 ovarian): > 100 µM
- TGI (DMS 273 small cell lung): > 100 µM
- TGI (DLD-1 colon): > 100 µM
- TGI (LOX IMVI melanoma): > 100 µM
- TGI (DMS 114 small cell lung): > 100 µM
- TGI (EKVX NSCLC): > 100 µM
- TGI (SNB-75 CNS): > 100 µM
- TGI (HOP-18 NSCLC): > 100 µM

Compound: C/C(=N\NS(=O)(=O)c1ccc(C)cc1)C(CN(C)C)C(c1ccccc1)c1c(O)c2ccccc2oc1=O (stereo unspecified)
- TGI (M19-MEL melanoma): > 100 µM
- TGI (RXF-631 renal): > 100 µM
- TGI (SNB-78 CNS): > 100 µM
- TGI (XF 498 CNS): > 100 µM
- TGI (SR leukemia): > 100 µM
- TGI (OVCAR-4 ovarian): > 100 µM
- TGI (KM20L2 colon): > 100 µM
- TGI (DLD-1 colon): > 100 µM
- TGI (LOX IMVI melanoma): > 100 µM
- TGI (EKVX NSCLC): > 100 µM
- TGI (SNB-75 CNS): > 84.7 µM
- TGI (HOP-18 NSCLC): > 100 µM
- TGI (LXFL 529 NSCLC): > 100 µM

Compound: OCC(O)COc1c(Cl)ccc(Cl)c1Cl (stereo unspecified)
- TGI (M19-MEL melanoma): > 100 µM
- TGI (SNB-78 CNS): > 100 µM
- TGI (XF 498 CNS): > 100 µM
- TGI (SR leukemia): > 100 µM
- TGI (OVCAR-4 ovarian): > 100 µM
- TGI (KM20L2 colon): > 100 µM
- TGI (DMS 273 small cell lung): > 100 µM
- TGI (DLD-1 colon): > 100 µM
- TGI (LOX IMVI melanoma): > 100 µM
- TGI (DMS 114 small cell lung): > 100 µM
- TGI (EKVX NSCLC): > 100 µM
- TGI (SNB-75 CNS): > 100 µM
- TGI (HOP-18 NSCLC): > 100 µM
- TGI (LXFL 529 NSCLC): > 100 µM

Compound: CN(C)CCCSc1c2ccccc2nc2cc(NCC(=O)Nc3ccccc3-c3ccccc3NC(=O)CNc3ccc4c(SCCCN(C)C)c5ccccc5nc4c3)ccc12
- TGI (M19-MEL melanoma): > 100 µM
- TGI (SNB-78 CNS): > 100 µM
- TGI (XF 498 CNS): > 100 µM
- TGI (SR leukemia): > 100 µM
- TGI (OVCAR-4 ovarian): > 100 µM
- TGI (KM20L2 colon): > 100 µM
- TGI (DMS 273 small cell lung): > 100 µM
- TGI (DLD-1 colon): > 100 µM
- TGI (LOX IMVI melanoma): > 100 µM
- TGI (DMS 114 small cell lung): > 100 µM
- TGI (EKVX NSCLC): > 100 µM
- TGI (SNB-75 CNS): > 100 µM
- TGI (HOP-18 NSCLC): > 100 µM
- TGI (LXFL 529 NSCLC): > 100 µM

Compound: CC(=O)c1c(O)ccc2c1CC(CC=O)O2 (stereo unspecified)
- TGI (M19-MEL melanoma): > 100 µM
- TGI (RXF-631 renal): > 100 µM
- TGI (SNB-78 CNS): > 100 µM
- TGI (XF 498 CNS): > 100 µM
- TGI (SR leukemia): > 100 µM
- TGI (OVCAR-4 ovarian): > 100 µM
- TGI (KM20L2 colon): > 100 µM
- TGI (DLD-1 colon): > 100 µM
- TGI (LOX IMVI melanoma): 60.9 µM
- TGI (DMS 114 small cell lung): 55.1 µM
- TGI (SNB-75 CNS): > 100 µM
- TGI (LXFL 529 NSCLC): > 100 µM

Compound: COC1=CC(C2c3cc4c(cc3[C@@H](Nc3ccc([N+](=O)[O-])cc3)C3COC(=O)[C@H]23)OCO4)=CC(=O)C1=O (stereo partly specified)
- TGI (M19-MEL melanoma): 45.2 µM
- TGI (RXF-631 renal): 14.1 µM
- TGI (SNB-78 CNS): > 100 µM
- TGI (XF 498 CNS): 50.7 µM
- TGI (OVCAR-4 ovarian): > 100 µM
- TGI (KM20L2 colon): > 62.6 µM
- TGI (DMS 273 small cell lung): 5.12 µM
- TGI (DLD-1 colon): > 96.7 µM
- TGI (LOX IMVI melanoma): 13.2 µM
- TGI (DMS 114 small cell lung): 8.28 µM
- TGI (EKVX NSCLC): > 95.2 µM
- TGI (SNB-75 CNS): 16 µM
- TGI (HOP-18 NSCLC): > 100 µM
- TGI (LXFL 529 NSCLC): > 78.7 µM
